Experimental data as given in ChEMBL document CHEMBL3044982, “Cross-resistance, inheritance and biochemical mechanisms of imidacloprid resistance in B-biotype Bemisia tabaci” (2009).
In brackets after ≈: the same amount, converted by molar mass.

Key:
Assay type in all cases: functional
Bemisia tabaci [1] = experiment: Resistance factor, ratio of LC50 for adult female Bemisia tabaci B-biotype NJ-Imi (sweet potato whitefly) (G30) to LC50 for adult female B-type Bemisia tabaci NJ
Bemisia tabaci [2] = experiment: Insecticidal activity against adult female imidacloprid-resistant Bemisia tabaci B-biotype NJ-Imi (sweet potato whitefly) (G30) in cotton leaf discs assessed as mortality treated for 10 secs prior to adult infestation measured after 72 hr by leaf-dip bioassay; settings: foliar
Bemisia tabaci [3] = experiment: Insecticidal activity against adult female imidacloprid-susceptible Bemisia tabaci B-biotype NJ (sweet potato whitefly) in cotton leaf discs assessed as mortality treated for 10 secs prior to adult infestation measured after 72 hr by leaf-dip bioassay; settings: foliar
Bemisia tabaci [4] = experiment: Resistance factor, ratio of LC50 for adult female Bemisia tabaci B-biotype NJ-Imi (sweet potato whitefly) (G15) to LC50 for adult female B-type Bemisia tabaci NJ
Bemisia tabaci [5] = experiment: (§1) Insecticidal activity against adult female imidacloprid-resistant Bemisia tabaci B-biotype NJ-Imi (sweet potato whitefly) (G15) in cotton leaf discs assessed as mortality treated for 10 secs prior to adult infestation measured after 72 hr by leaf-dip bioassay; settings: foliar
Bemisia tabaci [6] = experiment: (§2) Insecticidal activity against female F1 progeny generated from reciprocal cross between female Bemisia tabaci B-biotype NJ-Imi (sweet potato whitefly) with male Bemisia tabaci B-biotype NJ in cotton leaf discs assessed as mortality treated for 10 secs prior to adult infestation measured after 72 hr by leaf-dip bioassay; settings: foliar
Bemisia tabaci [7] = experiment: Insecticidal activity against adult male Bemisia tabaci B-biotype NJ-Imi (sweet potato whitefly) (G30) in cotton leaf discs assessed as mortality treated for 10 secs prior to adult infestation measured after 72 hr by leaf-dip bioassay; settings: foliar
Bemisia tabaci [8] = experiment: as §1, with “female” for “female imidacloprid-resistant”, “bioassay in presence of 100 mg/L cytochrome P450 monoxygenase inhibitor, PBO” for “bioassay”; settings: foliar
Bemisia tabaci [9] = experiment: Insecticidal activity against adult female Bemisia tabaci B-biotype NJ (sweet potato whitefly) in cotton leaf discs assessed as mortality treated for 10 secs prior to adult infestation measured after 72 hr by leaf-dip bioassay in presence of 100 mg/L esterase inhibitor, DEF; settings: foliar
Bemisia tabaci [10] = experiment: Insecticidal activity against adult female Bemisia tabaci B-biotype NJ (sweet potato whitefly) in cotton leaf discs assessed as mortality treated for 10 secs prior to adult infestation measured after 72 hr by leaf-dip bioassay in presence of 100 mg/L GSH depleter, DEM; settings: foliar
Bemisia tabaci [11] = experiment: (§3) Insecticidal activity against adult female Bemisia tabaci B-biotype NJ (sweet potato whitefly) in cotton leaf discs assessed as mortality treated for 10 secs prior to adult infestation measured after 72 hr by leaf-dip bioassay in presence of 100 mg/L cytochrome P450 monoxygenase inhibitor, PBO; settings: foliar
Bemisia tabaci [12] = experiment: Resistance factor, ratio of LC50 for female B-biotype Bemisia tabaci NJ-Imi F1' (sweet potato whitefly) progeny to LC50 for adult female B-type Bemisia tabaci NJ
Bemisia tabaci [13] = experiment: Resistance factor, ratio of LC50 for adult male Bemisia tabaci B-biotype NJ-Imi (sweet potato whitefly) (G30) to LC50 for adult female B-type Bemisia tabaci NJ
Bemisia tabaci [14] = experiment: Resistance factor, ratio of LC50 for female Bemisia tabaci B-biotype NJ-Imi F1 (sweet potato whitefly) progeny to LC50 for adult female B-type Bemisia tabaci NJ
Bemisia tabaci [15] = experiment: as §2, with “female F1'” for “female F1”, “between male B-biotype” for “between female”, “tabaci” for “tabaci B-biotype”, “with female B-biotype” for “with male”; settings: foliar
Bemisia tabaci [16] = experiment: Insecticidal activity against adult female Bemisia tabaci B-biotype NJ-Imi (sweet potato whitefly) (G15) in cotton leaf discs assessed as mortality treated for 10 secs prior to adult infestation measured after 72 hr by leaf-dip bioassay in presence of 100 mg/L GSH depleter, DEM; settings: foliar
Bemisia tabaci [17] = experiment: Synergistic ratio of LC50 for adult female Bemisia tabaci B-biotype NJ-Imi (sweet potato whitefly) (G15) to LC50 for adult female Bemisia tabaci B-biotype NJ in presence of 100 mg/L cytochrome P450 monoxygenase inhibitor, PBO
Bemisia tabaci [18] = experiment: Synergistic ratio of LC50 for adult female Bemisia tabaci B-biotype NJ (sweet potato whitefly) to LC50 for adult female Bemisia tabaci B-biotype NJ in presence of 100 mg/L esterase inhibitor, DEF
Bemisia tabaci [19] = experiment: Synergistic ratio of LC50 for adult female Bemisia tabaci B-biotype NJ (sweet potato whitefly) to LC50 for adult female Bemisia tabaci B-biotype NJ in presence of 100 mg/L GSH depleter, DEM
Bemisia tabaci [20] = experiment: Synergistic ratio of LC50 for adult female Bemisia tabaci B-biotype NJ (sweet potato whitefly) to LC50 for adult female Bemisia tabaci B-biotype NJ in presence of 100 mg/L cytochrome P450 monoxygenase inhibitor, PBO
Bemisia tabaci [21] = experiment: Insecticidal activity against adult female Bemisia tabaci B-biotype NJ-Imi (sweet potato whitefly) (G30) in cotton leaf discs assessed as mortality treated for 10 secs prior to adult infestation measured after 72 hr by leaf-dip bioassay in presence of 100 mg/L esterase inhibitor, DEF; settings: foliar
Bemisia tabaci [22] = experiment: Insecticidal activity against adult female Bemisia tabaci B-biotype NJ-Imi (sweet potato whitefly) (G30) in cotton leaf discs assessed as mortality treated for 10 secs prior to adult infestation measured after 72 hr by leaf-dip bioassay in presence of 100 mg/L GSH depleter, DEM; settings: foliar
Bemisia tabaci [23] = experiment: as §3, with “NJ-Imi” for “NJ”, “whitefly) (G30)” for “whitefly)”; settings: foliar
Bemisia tabaci [24] = experiment: Insecticidal activity against adult female Bemisia tabaci B-biotype NJ-Imi (sweet potato whitefly) (G15) in cotton leaf discs assessed as mortality treated for 10 secs prior to adult infestation measured after 72 hr by leaf-dip bioassay in presence of 100 mg/L esterase inhibitor, DEF; settings: foliar
Bemisia tabaci [25] = experiment: Synergistic ratio of LC50 for adult female Bemisia tabaci B-biotype NJ-Imi (sweet potato whitefly) (G30)to LC50 for adult female Bemisia tabaci B-biotype NJ in presence of 100 mg/L esterase inhibitor, DEF
Bemisia tabaci [26] = experiment: Synergistic ratio of LC50 for adult female Bemisia tabaci B-biotype NJ-Imi (sweet potato whitefly) (G30) to LC50 for adult female Bemisia tabaci B-biotype NJ in presence of 100 mg/L GSH depleter, DEM
Bemisia tabaci [27] = experiment: Synergistic ratio of LC50 for adult female Bemisia tabaci B-biotype NJ-Imi (sweet potato whitefly) (G30) to LC50 for adult female Bemisia tabaci B-biotype NJ in presence of 100 mg/L cytochrome P450 monoxygenase inhibitor, PBO
Bemisia tabaci [28] = experiment: Synergistic ratio of LC50 for adult female Bemisia tabaci B-biotype NJ-Imi (sweet potato whitefly) (G15)to LC50 for adult female Bemisia tabaci B-biotype NJ in presence of 100 mg/L esterase inhibitor, DEF
Bemisia tabaci [29] = experiment: Synergistic ratio of LC50 for adult female Bemisia tabaci B-biotype NJ-Imi (sweet potato whitefly) (G15) to LC50 for adult female Bemisia tabaci B-biotype NJ in presence of 100 mg/L GSH depleter, DEM

CC[C@H](C)[C@H]1O[C@]2(C=C[C@@H]1C)C[C@@H]1C[C@@H](C/C=C(\C)[C@@H](O[C@H]3C[C@H](OC)[C@@H](O[C@H]4C[C@H](OC)[C@@H](O)[C@H](C)O4)[C@H](C)O3)[C@@H](C)/C=C/C=C3\CO[C@@H]4[C@H](O)C(C)=C[C@@H](C(=O)O1)[C@]34O)O2.CO[C@H]1C[C@H](O[C@H]2[C@H](C)O[C@@H](O[C@@H]3/C(C)=C/C[C@@H]4C[C@@H](C[C@]5(C=C[C@H](C)[C@@H](C(C)C)O5)O4)OC(=O)[C@@H]4C=C(C)[C@@H](O)[C@H]5OC/C(=C\C=C\[C@@H]3C)[C@]54O)C[C@@H]2OC)O[C@@H](C)[C@@H]1O [ABAMECTIN]
RatioLC50 (Bemisia tabaci [1]): 1 | LC50 (Bemisia tabaci [2]): 0.92 µg/mL | LC50 (Bemisia tabaci [3]): 0.8 µg/mL

C/C(=N\C#N)N(C)Cc1ccc(Cl)nc1 [ACETAMIPRID]
RatioLC50 (Bemisia tabaci [1]): 143 | RatioLC50 (Bemisia tabaci [4]): 49 | LC50 (Bemisia tabaci [2]): 186 µg/mL (≈ 835 µM) | LC50 (Bemisia tabaci [5]): 63 µg/mL (≈ 283 µM) | LC50 (Bemisia tabaci [3]): 1.3 µg/mL (≈ 5.84 µM)

CC1(C)C(C=C(Cl)Cl)C1C(=O)OC(C#N)c1cccc(Oc2ccccc2)c1 (stereo not drawn) [ALPHA-CYPERMETHRIN]
RatioLC50 (Bemisia tabaci [1]): 1 | RatioLC50 (Bemisia tabaci [4]): 1 | LC50 (Bemisia tabaci [2]): 263 µg/mL (≈ 632 µM) | LC50 (Bemisia tabaci [5]): 230 µg/mL (≈ 552 µM) | LC50 (Bemisia tabaci [3]): 226 µg/mL (≈ 543 µM)

CN(C)C(CSC(N)=O)CSC(N)=O [CARTAP]
RatioLC50 (Bemisia tabaci [1]): 11 | LC50 (Bemisia tabaci [2]): 17.4 µg/mL (≈ 73.3 µM) | LC50 (Bemisia tabaci [3]): 1.55 µg/mL (≈ 6.53 µM)

O=[N+]([O-])/N=C1\NCCN1Cc1ccc(Cl)nc1 [IMIDACLOPRID]
LC50 (Bemisia tabaci [6]): 30.9 µg/mL (≈ 121 µM) | LC50 (Bemisia tabaci [7]): 411 µg/mL (≈ 1610 µM) | RatioLC50 (Bemisia tabaci [1]): 490 | RatioLC50 (Bemisia tabaci [4]): 257 | LC50 (Bemisia tabaci [2]): 485 µg/mL (≈ 1900 µM) | LC50 (Bemisia tabaci [5]): 254 µg/mL (≈ 993 µM) | LC50 (Bemisia tabaci [8]): 102 µg/mL | LC50 (Bemisia tabaci [9]): 0.4 µg/mL | LC50 (Bemisia tabaci [10]): 1.22 µg/mL | LC50 (Bemisia tabaci [11]): 0.91 µg/mL | RatioLC50 (Bemisia tabaci [12]): 29 | RatioLC50 (Bemisia tabaci [13]): 415 | RatioLC50 (Bemisia tabaci [14]): 31 | LC50 (Bemisia tabaci [15]): 28.6 µg/mL (≈ 112 µM) | LC50 (Bemisia tabaci [3]): 0.99 µg/mL (≈ 3.87 µM) | LC50 (Bemisia tabaci [16]): 273 µg/mL | RatioLC50 (Bemisia tabaci [17]): 2.5 | RatioLC50 (Bemisia tabaci [18]): 2.5 | RatioLC50 (Bemisia tabaci [19]): 0.8 | RatioLC50 (Bemisia tabaci [20]): 1.1 | LC50 (Bemisia tabaci [21]): 371 µg/mL | LC50 (Bemisia tabaci [22]): 357 µg/mL | LC50 (Bemisia tabaci [23]): 231 µg/mL | LC50 (Bemisia tabaci [24]): 94 µg/mL | RatioLC50 (Bemisia tabaci [25]): 1.3 | RatioLC50 (Bemisia tabaci [26]): 1.4 | RatioLC50 (Bemisia tabaci [27]): 2.1 | RatioLC50 (Bemisia tabaci [28]): 2.7 | RatioLC50 (Bemisia tabaci [29]): 0.9

CN(C)C(CSS(=O)(=O)[O-])CSS(=O)(=O)O.[Na+] [MONOSULTAP]
RatioLC50 (Bemisia tabaci [1]): 7 | RatioLC50 (Bemisia tabaci [4]): 7 | LC50 (Bemisia tabaci [2]): 294 µg/mL | LC50 (Bemisia tabaci [5]): 297 µg/mL | LC50 (Bemisia tabaci [3]): 43.9 µg/mL

CCN(Cc1ccc(Cl)nc1)/C(=C/[N+](=O)[O-])NC [NITENPYRAM]
RatioLC50 (Bemisia tabaci [1]): 94 | LC50 (Bemisia tabaci [2]): 93 µg/mL (≈ 344 µM) | LC50 (Bemisia tabaci [3]): 0.99 µg/mL (≈ 3.66 µM)

N#C/N=C1\SCCN1Cc1ccc(Cl)nc1 [THIACLOPRID]
RatioLC50 (Bemisia tabaci [1]): 37 | LC50 (Bemisia tabaci [2]): 37.3 µg/mL (≈ 148 µM) | LC50 (Bemisia tabaci [3]): 1.02 µg/mL (≈ 4.04 µM)

CN1COCN(Cc2cnc(Cl)s2)/C1=N\[N+](=O)[O-] [THIAMETHOXAM]
RatioLC50 (Bemisia tabaci [1]): 243 | RatioLC50 (Bemisia tabaci [4]): 92 | LC50 (Bemisia tabaci [2]): 289 µg/mL (≈ 991 µM) | LC50 (Bemisia tabaci [5]): 110 µg/mL (≈ 377 µM) | LC50 (Bemisia tabaci [3]): 1.19 µg/mL (≈ 4.08 µM)
